Experimental data reported in US20260070945A1, “MACROCYCLIC IMMUNOMODULATORS” (Bristol-Myers Squibb Company, priority 2022, published 2026).
pIC50: −log10 of the molar value. Where a SMILES comes first, the peptide text is derived from it. Bridges are numbered along the chain shown (N, C = ends). [ ]: non-standard residue; d: D form. The star is where a group is joined. ξ: configuration not given here. Phe(4-COOH) = N[C@@H](Cc1ccc(C(=O)O)cc1)C(=O)O; Bip = N[C@@H](Cc1ccc(-c2ccccc2)cc1)C(=O)O; Phe(3-F) = N[C@@H](Cc1cccc(F)c1)C(=O)O; Phe(3-Me) = Cc1cccc(C[C@H](N)C(=O)O)c1; Val(3-OH) = CC(C)(O)[C@H](N)C(=O)O; 4Pal = N[C@@H](Cc1ccncc1)C(=O)O; Cha = N[C@@H](CC1CCCCC1)C(=O)O; Carboxymethyl = O=C(O)C*; NMeA = CN[C@@H](C)C(=O)O; Aun = NCCCCCCCCCCC(=O)O; Dab = NCC[C@H](N)C(=O)O; Dap = NC[C@H](N)C(=O)O; AEEA = NCCOCCOCC(=O)O; ξDab = NCCC(N)C(=O)O

These compounds were tested against T1, PD-1/PD-L1 interaction (PE-labeled human PD-L1-Ig binding to Jurkat cell line over-expressing human PD-1) (Homo sapiens, UniProt Q15116) (assay: Jurkat-PD-1 Cell Binding High-Content Screening Assay (CBA)). Settings: Jurkat-hPD-1 cells, PE-labeled PD-L1-Ig 20 nM final; read-out: Jurkat HPD1 PDL1 IC50.
T1 construct: expressed in transfected cells; host or cells: Jurkat
Method in brief: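 Compound is added first to the PD-1-expressing Jurkat cells and held 2 h at 37 °C in serum-containing DMEM. The fluorescent PD-L1 fusion follows at 20 nM final for 1 h. Fixed, Hoechst-stained cells are then imaged for bound label.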

T1 sequence (Q15116 25-288): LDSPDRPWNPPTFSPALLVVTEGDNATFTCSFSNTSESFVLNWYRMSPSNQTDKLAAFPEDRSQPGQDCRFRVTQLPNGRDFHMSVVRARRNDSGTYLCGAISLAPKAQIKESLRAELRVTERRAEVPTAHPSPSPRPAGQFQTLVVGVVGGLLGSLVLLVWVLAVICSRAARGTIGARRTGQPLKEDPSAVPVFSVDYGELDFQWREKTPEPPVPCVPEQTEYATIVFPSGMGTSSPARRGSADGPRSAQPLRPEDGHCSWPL

Structure (SMILES)	pIC50
Cc1cccc(C[C@@H]2NC(=O)[C@H](CC(=O)O)NC(=O)[C@H](Cc3ccc(OCC(=O)O)cc3)NC(=O)[C@H]([C@@H](C)O)NC(=O)CSC[C@@H](C(=O)N[C@H](C)C(=O)NCCOCCOCC(=O)NCCCCCCCCCCC(=O)O)NC(=O)[C@H](CCC(=O)O)NC(=O)[C@H](C(C)(C)O)NC(=O)[C@H](CC3CCCCC3)NC(=O)[C@H](CCN)NC(=O)[C@@H](CC(C)C)NC(=O)[C@H](C)N(C)C(=O)[C@H](Cc3ccc(OCC(=O)O)cc3)NC(=O)[C@H](Cc3ccc(-c4ccccc4)cc3)NC(=O)[C@H](Cc3ccc(OCC(=O)O)cc3)NC2=O)c1 [Example 1417] ({CH2CO}-TY(Carboxymethyl)D[Phe(3-Me)]Y(Carboxymethyl)[Bip]Y(Carboxymethyl)[NMeA][dL][Dab][Cha][Val(3-OH)]EC[dA][AEEA][Aun]-OH; thioether N-14)	6.42
Cc1cccc(C[C@@H]2NC(=O)[C@H](CC(=O)O)NC(=O)[C@H](Cc3ccc(OCC(=O)O)cc3)NC(=O)[C@H]([C@@H](C)O)NC(=O)CSC[C@@H](C(=O)N[C@H](C)C(=O)NCCCCCCCCCCC(=O)O)NC(=O)[C@H](CCC(=O)O)NC(=O)[C@H](C(C)(C)O)NC(=O)[C@H](CC3CCCCC3)NC(=O)[C@H](CCN)NC(=O)[C@@H](CC(C)C)NC(=O)[C@H](C)N(C)C(=O)[C@H](Cc3ccc(OCC(=O)O)cc3)NC(=O)[C@H](Cc3ccc(-c4ccccc4)cc3)NC(=O)[C@H](Cc3ccc(OCC(=O)O)cc3)NC2=O)c1 [Example 1421] ({CH2CO}-TY(Carboxymethyl)D[Phe(3-Me)]Y(Carboxymethyl)[Bip]Y(Carboxymethyl)[NMeA][dL][Dab][Cha][Val(3-OH)]EC[dA][Aun]-OH; thioether N-14)	6.62
Cc1cccc(C[C@@H]2NC(=O)[C@H](CC(=O)O)NC(=O)[C@H](Cc3ccc(OCC(=O)O)cc3)NC(=O)[C@H]([C@@H](C)O)NC(=O)CSC[C@@H](C(=O)N[C@@H](CCN)C(=O)NCCCCCCCCCCC(=O)O)NC(=O)[C@H](CCC(=O)O)NC(=O)[C@H](C(C)C)NC(=O)[C@H](CC3CCCCC3)NC(=O)[C@H](CCN)NC(=O)[C@@H](CC(C)C)NC(=O)[C@H](C)N(C)C(=O)[C@H](Cc3ccc(OCC(=O)O)cc3)NC(=O)[C@H](Cc3ccc(-c4ccccc4)cc3)NC(=O)[C@H](Cc3ccc(OCC(=O)O)cc3)NC2=O)c1 [Example 1422] ({CH2CO}-TY(Carboxymethyl)D[Phe(3-Me)]Y(Carboxymethyl)[Bip]Y(Carboxymethyl)[NMeA][dL][Dab][Cha]VEC[Dab][Aun]-OH; thioether N-14)	7.69
Cc1cccc(C[C@@H]2NC(=O)[C@H](CC(=O)O)NC(=O)[C@H](Cc3ccc(OCC(=O)O)cc3)NC(=O)[C@H]([C@@H](C)O)NC(=O)CSC[C@@H](C(=O)NC(CCN)C(=O)NCCOCCOCC(=O)NCCCCCCCCCCC(=O)O)NC(=O)[C@H](CCC(=O)O)NC(=O)[C@H](C(C)(C)O)NC(=O)[C@H](CC3CCCCC3)NC(=O)[C@H](CCN)NC(=O)[C@@H](CC(C)C)NC(=O)[C@H](C)N(C)C(=O)[C@H](Cc3ccc(OCC(=O)O)cc3)NC(=O)[C@H](Cc3ccc(-c4ccccc4)cc3)NC(=O)[C@H](Cc3ccc(C(=O)O)cc3)NC2=O)c1 (stereo partly drawn) [Example 1423] ({CH2CO}-TY(Carboxymethyl)D[Phe(3-Me)][Phe(4-COOH)][Bip]Y(Carboxymethyl)[NMeA][dL][Dab][Cha][Val(3-OH)]EC[ξDab][AEEA][Aun]-OH; thioether N-14)	7.55
Cc1cccc(C[C@@H]2NC(=O)[C@H](CC(=O)O)NC(=O)[C@H](Cc3ccc(OCC(=O)O)cc3)NC(=O)[C@H]([C@@H](C)O)NC(=O)CSC[C@@H](C(=O)N[C@@H](CCN)C(=O)NCCOCCOCC(=O)NCCCCCCCCCCC(=O)O)NC(=O)[C@H](CCC(=O)O)NC(=O)[C@H](C(C)(C)O)NC(=O)[C@H](CC3CCCCC3)NC(=O)[C@H](CCN)NC(=O)[C@@H](CC(C)C)NC(=O)[C@H](C)N(C)C(=O)[C@H](Cc3ccc(OCC(=O)O)cc3)NC(=O)[C@H](Cc3ccc(-c4ccccc4)cc3)NC(=O)[C@H](Cc3cccc(F)c3)NC2=O)c1 [Example 1424] ({CH2CO}-TY(Carboxymethyl)D[Phe(3-Me)][Phe(3-F)][Bip]Y(Carboxymethyl)[NMeA][dL][Dab][Cha][Val(3-OH)]EC[Dab][AEEA][Aun]-OH; thioether N-14)	7.56
Cc1cccc(C[C@@H]2NC(=O)[C@H](CC(=O)O)NC(=O)[C@H](Cc3ccc(OCC(=O)O)cc3)NC(=O)[C@H](Cc3ccncc3)NC(=O)CSC[C@@H](C(=O)N[C@@H](CCN)C(=O)NCCOCCOCC(=O)NCCCCCCCCCCC(=O)O)NC(=O)[C@H](CCC(=O)O)NC(=O)[C@H](C(C)(C)O)NC(=O)[C@H](CC3CCCCC3)NC(=O)[C@H](CCN)NC(=O)[C@@H](CC(C)C)NC(=O)[C@H](C)N(C)C(=O)[C@H](Cc3ccc(OCC(=O)O)cc3)NC(=O)[C@H](Cc3ccc(-c4ccccc4)cc3)NC(=O)[C@H](Cc3ccc(OCC(=O)O)cc3)NC2=O)c1 [Example 1425] ({CH2CO}-[4Pal]Y(Carboxymethyl)D[Phe(3-Me)]Y(Carboxymethyl)[Bip]Y(Carboxymethyl)[NMeA][dL][Dab][Cha][Val(3-OH)]EC[Dab][AEEA][Aun]-OH; thioether N-14)	6.80
Cc1cccc(C[C@@H]2NC(=O)[C@H](CC(=O)O)NC(=O)[C@H](Cc3ccc(C(=O)O)cc3)NC(=O)[C@H](Cc3ccncc3)NC(=O)CSC[C@@H](C(=O)N[C@@H](CCN)C(=O)NCCOCCOCC(=O)NCCCCCCCCCCC(=O)O)NC(=O)[C@H](CCC(=O)O)NC(=O)[C@H](C(C)(C)O)NC(=O)[C@H](CC3CCCCC3)NC(=O)[C@H](CCN)NC(=O)[C@@H](CC(C)C)NC(=O)[C@H](C)N(C)C(=O)[C@H](Cc3ccc(OCC(=O)O)cc3)NC(=O)[C@H](Cc3ccc(-c4ccccc4)cc3)NC(=O)[C@H](Cc3ccc(OCC(=O)O)cc3)NC2=O)c1 [Example 1427] ({CH2CO}-[4Pal][Phe(4-COOH)]D[Phe(3-Me)]Y(Carboxymethyl)[Bip]Y(Carboxymethyl)[NMeA][dL][Dab][Cha][Val(3-OH)]EC[Dab][AEEA][Aun]-OH; thioether N-14)	6.96
Cc1cccc(C[C@@H]2NC(=O)[C@H](CC(=O)O)NC(=O)[C@H](Cc3ccc(C(=O)O)cc3)NC(=O)[C@H](Cc3ccncc3)NC(=O)CSC[C@@H](C(=O)N[C@@H](CC(N)=O)C(=O)NCCOCCOCC(=O)NCCCCCCCCCCC(=O)O)NC(=O)[C@H](CCC(=O)O)NC(=O)[C@H](C(C)(C)O)NC(=O)[C@H](CC3CCCCC3)NC(=O)[C@H](CCN)NC(=O)[C@@H](CC(C)C)NC(=O)[C@H](C)N(C)C(=O)[C@H](Cc3ccc(OCC(=O)O)cc3)NC(=O)[C@H](Cc3ccc(-c4ccccc4)cc3)NC(=O)[C@H](Cc3ccc(OCC(=O)O)cc3)NC2=O)c1 [Example 1428] ({CH2CO}-[4Pal][Phe(4-COOH)]D[Phe(3-Me)]Y(Carboxymethyl)[Bip]Y(Carboxymethyl)[NMeA][dL][Dab][Cha][Val(3-OH)]ECN[AEEA][Aun]-OH; thioether N-14)	6.37

Results, then the compound that gave them:

pIC50	Structure (SMILES)
7.43	Cc1cccc(C[C@@H]2NC(=O)[C@H](CC(=O)O)NC(=O)[C@H](Cc3ccc(OCC(=O)O)cc3)NC(=O)[C@H]([C@@H](C)O)NC(=O)CSC[C@@H](C(=O)N[C@@H](CCN)C(=O)NCCCCCCCCCCC(=O)O)NC(=O)[C@H](CCC(=O)O)NC(=O)[C@H](C(C)(C)O)NC(=O)[C@H](CC3CCCCC3)NC(=O)[C@H](CCN)NC(=O)[C@@H](CC(C)C)NC(=O)[C@H](C)N(C)C(=O)[C@H](Cc3ccc(OCC(=O)O)cc3)NC(=O)[C@H](Cc3ccc(-c4ccccc4)cc3)NC(=O)[C@H](Cc3ccc(OCC(=O)O)cc3)NC2=O)c1 [Example 1418] ({CH2CO}-TY(Carboxymethyl)D[Phe(3-Me)]Y(Carboxymethyl)[Bip]Y(Carboxymethyl)[NMeA][dL][Dab][Cha][Val(3-OH)]EC[Dab][Aun]-OH; thioether N-14)
6.73	Cc1cccc(C[C@@H]2NC(=O)[C@H](CC(=O)O)NC(=O)[C@H](Cc3ccc(OCC(=O)O)cc3)NC(=O)[C@H]([C@@H](C)O)NC(=O)CSC[C@@H](C(=O)N[C@@H](CC(N)=O)C(=O)NCCCCCCCCCCC(=O)O)NC(=O)[C@H](CCC(=O)O)NC(=O)[C@H](C(C)(C)O)NC(=O)[C@H](CC3CCCCC3)NC(=O)[C@H](CCN)NC(=O)[C@@H](CC(C)C)NC(=O)[C@H](C)N(C)C(=O)[C@H](Cc3ccc(OCC(=O)O)cc3)NC(=O)[C@H](Cc3ccc(-c4ccccc4)cc3)NC(=O)[C@H](Cc3ccc(OCC(=O)O)cc3)NC2=O)c1 [Example 1419] ({CH2CO}-TY(Carboxymethyl)D[Phe(3-Me)]Y(Carboxymethyl)[Bip]Y(Carboxymethyl)[NMeA][dL][Dab][Cha][Val(3-OH)]ECN[Aun]-OH; thioether N-14)
6.94	Cc1cccc(C[C@@H]2NC(=O)[C@H](CC(=O)O)NC(=O)[C@H](Cc3ccc(OCC(=O)O)cc3)NC(=O)[C@H]([C@@H](C)O)NC(=O)CSC[C@@H](C(=O)N[C@H](CC(N)=O)C(=O)NCCCCCCCCCCC(=O)O)NC(=O)[C@H](CCC(=O)O)NC(=O)[C@H](C(C)(C)O)NC(=O)[C@H](CC3CCCCC3)NC(=O)[C@H](CCN)NC(=O)[C@@H](CC(C)C)NC(=O)[C@H](C)N(C)C(=O)[C@H](Cc3ccc(OCC(=O)O)cc3)NC(=O)[C@H](Cc3ccc(-c4ccccc4)cc3)NC(=O)[C@H](Cc3ccc(OCC(=O)O)cc3)NC2=O)c1 [Example 1420] ({CH2CO}-TY(Carboxymethyl)D[Phe(3-Me)]Y(Carboxymethyl)[Bip]Y(Carboxymethyl)[NMeA][dL][Dab][Cha][Val(3-OH)]EC[dN][Aun]-OH; thioether N-14)
7.74	Cc1cccc(C[C@@H]2NC(=O)[C@H](CC(=O)O)NC(=O)[C@H](Cc3ccc(OCC(=O)O)cc3)NC(=O)[C@H](CN)NC(=O)CSC[C@@H](C(=O)N[C@@H](CCN)C(=O)NCCOCCOCC(=O)NCCCCCCCCCCC(=O)O)NC(=O)[C@H](CCC(=O)O)NC(=O)[C@H](C(C)(C)O)NC(=O)[C@H](CC3CCCCC3)NC(=O)[C@H](CCN)NC(=O)[C@@H](CC(C)C)NC(=O)[C@H](C)N(C)C(=O)[C@H](Cc3ccc(OCC(=O)O)cc3)NC(=O)[C@H](Cc3ccc(-c4ccccc4)cc3)NC(=O)[C@H](Cc3ccc(OCC(=O)O)cc3)NC2=O)c1 [Example 1426] ({CH2CO}-[Dap]Y(Carboxymethyl)D[Phe(3-Me)]Y(Carboxymethyl)[Bip]Y(Carboxymethyl)[NMeA][dL][Dab][Cha][Val(3-OH)]EC[Dab][AEEA][Aun]-OH; thioether N-14)
